≈ marks a conversion by molar mass, not a printed value. Calls of active or inactive are those of the source. No cut-off for these calls is given here.
How the values were obtained:
Autotaxin [1] = target: T1, Autotaxin (Homo sapiens, UniProt Q13822); assay: Inhibition of ATX (unknown origin) using bis-(p-nitrophenyl)phosphate as substrate
[2] = Lipophilicity, log D of compound at pH 7.4 by RP-HPLC analysis; format: physicochemical; conditions: buffer
[3] = Kinetic solubility of compound in phosphate buffer at pH 7.4 for 1 hr; format: physicochemical; conditions: read-out: Kinetic_solubility
[4] = Permeability of compound across artificial membrane after 3 hrs by LC-MS analysis; format: ADME; conditions: PAMPA; read-out: permeability
[5] = target: Lysophosphatidic acid receptor 1 (Homo sapiens) (UniProt Q92633); assay: Antagonist activity at LPA1 receptor (unknown origin) expressed in CHO-K1 cells assessed as LPA-induced receptor activity measured as remaining receptor activity at 10 uM compound incubated for 1 hr followed by addition of LPA for 3 hrs by luminometry; format: cell-based
Sequence of Lysophosphatidic acid receptor 1 (Homo sapiens) (Q92633 whole entry): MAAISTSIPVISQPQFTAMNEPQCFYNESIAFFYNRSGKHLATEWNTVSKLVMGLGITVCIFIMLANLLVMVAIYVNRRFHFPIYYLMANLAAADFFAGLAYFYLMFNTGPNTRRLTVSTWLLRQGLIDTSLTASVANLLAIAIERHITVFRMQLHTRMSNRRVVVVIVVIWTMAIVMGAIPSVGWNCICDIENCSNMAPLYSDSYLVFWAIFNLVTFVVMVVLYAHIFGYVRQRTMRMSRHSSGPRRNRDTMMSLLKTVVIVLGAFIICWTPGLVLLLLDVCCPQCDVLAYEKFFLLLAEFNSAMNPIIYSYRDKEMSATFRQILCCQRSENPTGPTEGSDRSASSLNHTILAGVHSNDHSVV

Autotaxin [6] = target: T1, Autotaxin; assay: Inhibition of ATX (unknown origin) using bis-(p-nitrophenyl)phosphate as substrate at 30 uM
PC-3 = assay: Inhibition of LPA-induced cell proliferation of human PC3 cells at 10 uM after 18 hrs by [3H]-thymidine incorporation assay; format: functional, cell-based
A2780 = assay: Cytotoxicity against human A2780 cells at 30 uM after 42 hrs by alamar blue assay; format: cell-based; conditions: a2780, 42 h

Ki (Autotaxin [1]) [µM]	logD [2]	solubility kinetic at 1 h [3] [µg/mL]	Papp at 3 h [4] [×10⁻⁶ cm/s]	Activity [5] [%]	inhibition (Autotaxin [6]) [%]	SMILES	inhibition (PC-3)	Activity (A2780)
> 30	7.52	5 (≈ 16.5 µM)	45			O=C(Nc1cccc(-c2ccccc2)c1)OCc1ccccc1		
< 5						COC(=O)CNCc1ccc(Br)cc1		
				11	< 20	Cc1noc(-c2ccc(-c3ccc(CC(=O)O)cc3)cc2)c1NC(=O)O[C@H](C)c1ccccc1		
4	-1.38	108 (≈ 294 µM)	< 1			CC(C)N1C(=O)CN(Cc2ccc(-c3ccc(CC(=O)O)cc3)cn2)C1=O		
3.5	3.1	221 (≈ 612 µM)	6.4			O=C(O)Cc1cccc(-c2cccc(NC(=O)OCc3ccccc3)c2)c1		
< 5						COC(=O)CNCc1ccc(Br)cn1		
> 30	7.43	110 (≈ 322 µM)	51			O=C(Cc1ccc(-c2ccc3cc[nH]c3c2)cc1)OCc1ccccc1		
> 30	3.13	212 (≈ 476 µM)	2.3			O=C(O)Cc1ccc(-c2ccc(N(C(=O)OCc3ccccc3)C3CCOCC3)cc2)cc1		
4.5	3.19	198 (≈ 548 µM)	7.3			O=C(O)Cc1ccc(-c2cccc(NC(=O)OCc3ccccc3)c2)cc1	Active	Non-toxic
3.9	-0.35	93 (≈ 228 µM)	< 3			O=C(O)Cc1ccc(-c2ccc(CN3CC(=O)N(C4CCCCC4)C3=O)nc2)cc1		
< 5						Brc1ccc(NC2CCOCC2)cc1		
1.1	7.25	70 (≈ 205 µM)	44.5			O=C(Cc1ccc(-c2ccc3[nH]ccc3c2)cc1)OCc1ccccc1		
< 5						O=C1CN(Cc2ccc(Br)cc2)C(=O)N1c1ccccc1		
4	3.06	287 (≈ 794 µM)	14			O=C(O)Cc1ccccc1-c1cccc(NC(=O)OCc2ccccc2)c1		
1.8	1.12	186 (≈ 456 µM)	2.2			O=C(O)Cc1ccc(-c2ccc(CN3CC(=O)N(C4CCCCC4)C3=O)cc2)cc1		
3.6	2.18	174 (≈ 436 µM)	0.3			O=C(O)Cc1ccc(-c2ccc(CN3CC(=O)N(c4ccccc4)C3=O)cc2)cc1		
1.3	6.24	7.5 (≈ 21.9 µM)	54			O=C1CN(Cc2ccc(-c3ccccc3)cc2)C(=O)N1c1ccccc1	Active	Non-toxic
< 5						O=C1CN(Cc2ccc(Br)cc2)C(=O)N1C1CCCCC1		
> 30	1.5	195 (≈ 457 µM)	1.6			O=C1CN(Cc2ccc(-c3ccc(C4(C(=O)O)CC4)cc3)cc2)C(=O)N1c1ccccc1		
< 5						CC(C)N1C(=O)CN(Cc2ccc(Br)cn2)C1=O		
				16	< 20	Cc1noc(-c2ccc(CSCCC(=O)O)cc2)c1NC(=O)OC(C)c1ccccc1Cl (stereo unspecified)		
2	4.92	189 (≈ 426 µM)	15			O=C(O)Cc1ccc(-c2ccc(N(C(=O)OCc3ccccc3)C3CCCCC3)cc2)cc1	Active	Non-toxic
1.2	1.1	190 (≈ 519 µM)	0.3			CC(C)N1C(=O)CN(Cc2ccc(-c3ccc(CC(=O)O)cc3)cc2)C1=O		

Source: ChEMBL document CHEMBL3739319, “Identification of a novel class of autotaxin inhibitors through cross-screening” (Medchemcomm, 2015)
